Results from US20040072824A1, “Methods and compositions for the treatment of cancer” (priority 2001, published 2004).
Structures can show the parent of a compound that is named as a salt. Where two headings read alike, the source gives them in different places.

What was measured:
[1] = system: K562, U937, Jurkat, T47-D, MCF7, BT20 and 184B5 cell lines; test: Cytotoxicity in malignant and immortalized cell lines (manual counting, Alamar assay); format: cell-based; conditions: all of the cell lines tested
Method: These four compounds were added at different concentrations to cultures of various malignant cell lines and normal cells. The cell lines used for these tests were the following:
All leukemic cell lines were grown and used in logarithmic phase. After one day of treatment, the cells were isolated, counted and diluted in a regular growth medium to provide the cell density of about 75×10^3 cells/ml for reading on plates at 48 hours after the treatment, and […] for reading at 144 hours after the treatment.
Several dilutions of each compound tested were added to the wells (12 wells per plate, TPP), and 1 ml of cells from the parent solution was added per well after a line had been completed. The dilutions were made using the culture medium, and following dilutions were tested: control, which contained no compound of this invention; 1:100; 1:1,000; 1:2,000; 1:5,000; and 1:10,000. The starting concentrations for these dilutions were: 50 mg/ml for compound A; 10 mg/ml for compound B; 25 mg/ml for compound C; and 5 mg/ml for compound D. The results were analyzed by manual counting and Alamar reduced assay.
The cells were grown on their respective propagation medium and seeded 24 hours before the compounds are added. The cells were trypsinized, and 50,000 cells/well and 10,000 cells/well were seeded in order to read the plates at 48 hours and 144 hours after being treated by the compounds, respectively.
On the day of the treatment, the medium was replaced by 10 ml each of series dilution of the compounds, consisting of: control, which contained no compound of this invention; 1:100 dilution; 1:1,000 dilution; 1:2,000 dilution; and 1:5,000 dilution. The starting concentrations for these dilutions were: 50 mg/ml for compound A; 10 mg/ml for compound B; 25 mg/ml for compound C; and 5 mg/ml for compound D. The dilution was made using the growth medium.
A tested compound is regarded as being active in cytotoxicity where the percentage of surviving cells after the treatment with the compound is less than 30%.

[2] = system: blastic cells from AML patients; test: Inhibition of viability of fresh leukemic cells (trypan blue exclusion); format: cell-based, human; conditions: day 3; for cytotoxicity at 10 µM / cytotoxicity at 1 µM: Homo sapiens
Method: Samples for AML 1 through 5, AML 1 being the least and AML 5 being the most differentiated, were obtained. […] Cells were incubated with or without […] anti-histamine derivatives. Polaramine was included as a negative control. Cell counts were assessed by trypan blue exclusion test at day 3 after the incubation. Morphological analysis was performed using Wright-Giemsa staining on cytocentrifuge preparations. The results were expressed as % inhibition of growth as compared to negative control.

[3] = system: K562, U937, MDA-DB231, BT20 and MCF7 cell lines; test: Cytotoxic effects in multi-well plate, 6 days, ATP level (CellTiter-Glo); conditions: 2x10^-9 M to 2x10^-4 M
Method: In order to test the cytotoxic effects of various compounds, a test was developed in a multi-well plate. Two leukemic cell lines, namely K562 and U937, and three breast cancer cell lines, namely MDA-DB231, BT20 and MCF7 were used for this test.
The cells were seeded at low density and were left for 24 hours to recover and reach a new logarithmic phase of growth. Various concentrations of the compounds being tested, ranging from 2×10^−9 M to 2×10^−4 M, were added in triplicate. The mixture was incubated for 6 days, during which approximately 4 doublings of the cell population occurred, to allow the cells to reach subconfluence.
The viability of the cultured cells after the treatment by the compounds was determined by quantifying the level of ATP since the level of ATP is directly proportional to the number of viable cells present in the culture. The ATP level was quantified by using CellTiter-Glo™ (Promega) luminescent test for cell viability.

[4] = system: MDA-MB-231 (breast cancer line); test: Curative effects on palpable tumors, MDA-MB-231 cells in scid/scid mice; format: in vivo; conditions: 2.5 mg/kg daily once tumors palpable
Method: In this series of experiments, effects of various compounds of the present invention on tumor development were tested using two protocols. The first protocol is directed to the testing of curative effects of these compounds in different cell lines. In this protocol, cancerous cells are inoculated to the animals, and the inoculated animals were left without any further treatment until the development of tumors. As soon as the tumors became palable (4 mm^3), the compounds of this invention were administered daily to the animals.

[5] = 72 h, patient ID 14, FAB AML5, 10^-5 M, read-out: In Vitro Percent Inhibition of Viability

CN(C)CC[C@@H](c1ccc(Cl)cc1)c1ccccn1 [D, dexchlorpheniramine maleate]
cytotoxic activity [1]: little or no cytotoxic activity
cytotoxicity at 10 µM [2, 5]: 9%

OCCN1CCN(CCCN2c3ccccc3Sc3ccc(Cl)cc32)CC1 [S64, perphenazine]
cytotoxic effect group [3]: I
cytotoxicity at 10 µM ([2]; 72 h, MEAN over AML patients, 10^-5 M, read-out: In Vitro Percent Inhibition of Viability, MEAN): 36%
cytotoxicity at 1 µM ([2]; 72 h, MEAN over AML patients, 10^-6 M, read-out: In Vitro Percent Inhibition of Viability, MEAN): 11%
cytotoxicity at 10 µM ([2]; 72 h, patient ID 3, FAB AML2, 10^-5 M, read-out: In Vitro Percent Inhibition of Viability): 31%
cytotoxicity at 1 µM ([2]; 72 h, patient ID 3, FAB AML2, 10^-6 M, read-out: In Vitro Percent Inhibition of Viability): 12%
cytotoxicity at 10 µM ([2]; 72 h, patient ID 4, FAB AML2, 10^-5 M, read-out: In Vitro Percent Inhibition of Viability): 27%
cytotoxicity at 1 µM ([2]; 72 h, patient ID 4, FAB AML2, 10^-6 M, read-out: In Vitro Percent Inhibition of Viability): 25%
cytotoxicity at 10 µM ([2]; 72 h, patient ID 5, FAB AML2, 10^-5 M, read-out: In Vitro Percent Inhibition of Viability): 26%
cytotoxicity at 1 µM ([2]; 72 h, patient ID 5, FAB AML2, 10^-6 M, read-out: In Vitro Percent Inhibition of Viability): 3%
cytotoxicity at 10 µM ([2]; 72 h, patient ID 10, FAB AML4, 10^-5 M, read-out: In Vitro Percent Inhibition of Viability): 42%
cytotoxicity at 1 µM ([2]; 72 h, patient ID 10, FAB AML4, 10^-6 M, read-out: In Vitro Percent Inhibition of Viability): 36%
cytotoxicity at 10 µM ([2]; 72 h, patient ID 11, FAB AML5, 10^-5 M, read-out: In Vitro Percent Inhibition of Viability): 57%
cytotoxicity at 1 µM ([2]; 72 h, patient ID 11, FAB AML5, 10^-6 M, read-out: In Vitro Percent Inhibition of Viability): 7%
cytotoxicity at 10 µM ([2]; 72 h, patient ID 12, FAB AML5, 10^-5 M, read-out: In Vitro Percent Inhibition of Viability): 54%
cytotoxicity at 10 µM ([2]; 72 h, patient ID 13, FAB AML5, 10^-5 M, read-out: In Vitro Percent Inhibition of Viability): 47%
cytotoxicity at 1 µM ([2]; 72 h, patient ID 13, FAB AML5, 10^-6 M, read-out: In Vitro Percent Inhibition of Viability): 0%
cytotoxicity at 10 µM [2, 5]: 23%
cytotoxicity at 1 µM ([2]; 72 h, patient ID 14, FAB AML5, 10^-6 M, read-out: In Vitro Percent Inhibition of Viability): 18%
cytotoxicity at 10 µM ([2]; 72 h, patient ID 15, FAB AML5, 10^-5 M, read-out: In Vitro Percent Inhibition of Viability): 17%
cytotoxicity at 1 µM ([2]; 72 h, patient ID 15, FAB AML5, 10^-6 M, read-out: In Vitro Percent Inhibition of Viability): 8%
cytotoxicity at 10 µM ([2]; AML1, 72 h, patient ID 1, FAB AML1, 10^-5 M, read-out: In Vitro Percent Inhibition of Viability): 17%
cytotoxicity at 1 µM ([2]; AML1, 72 h, patient ID 1, FAB AML1, 10^-6 M, read-out: In Vitro Percent Inhibition of Viability): 8%
cytotoxicity at 10 µM ([2]; AML1, 72 h, patient ID 2, FAB AML1, 10^-5 M, read-out: In Vitro Percent Inhibition of Viability): 32%
cytotoxicity at 1 µM ([2]; AML1, 72 h, patient ID 2, FAB AML1, 10^-6 M, read-out: In Vitro Percent Inhibition of Viability): 0%
cytotoxicity at 10 µM ([2]; AML3, 72 h, patient ID 6, FAB AML3, 10^-5 M, read-out: In Vitro Percent Inhibition of Viability): 35%
cytotoxicity at 1 µM ([2]; AML3, 72 h, patient ID 6, FAB AML3, 10^-6 M, read-out: In Vitro Percent Inhibition of Viability): 24%
cytotoxicity at 10 µM ([2]; AML3, 72 h, patient ID 7, FAB AML3, 10^-5 M, read-out: In Vitro Percent Inhibition of Viability): 45%
cytotoxicity at 1 µM ([2]; AML3, 72 h, patient ID 7, FAB AML3, 10^-6 M, read-out: In Vitro Percent Inhibition of Viability): 0%
cytotoxicity at 10 µM ([2]; AML3, 72 h, patient ID 8, FAB AML3, 10^-5 M, read-out: In Vitro Percent Inhibition of Viability): 50%
cytotoxicity at 1 µM ([2]; AML3, 72 h, patient ID 8, FAB AML3, 10^-6 M, read-out: In Vitro Percent Inhibition of Viability): 18%
cytotoxicity at 10 µM ([2]; AML3, 72 h, patient ID 9, FAB AML3, 10^-5 M, read-out: In Vitro Percent Inhibition of Viability): 35%
cytotoxicity at 1 µM ([2]; AML3, 72 h, patient ID 9, FAB AML3, 10^-6 M, read-out: In Vitro Percent Inhibition of Viability): 0%
tumor volume [4]: regression of the tumor volume

OCCN1CCN(CC/C=C2/c3ccccc3Sc3ccc(C(F)(F)F)cc32)CC1 [i41, flupentixol]
cytotoxic effect group [3]: I
In Vitro Percent Inhibition of Viability, MEAN ([2]; MEAN over AML patients, 10^-5 M): 50%
In Vitro Percent Inhibition of Viability, MEAN ([2]; MEAN over AML patients, 10^-6 M): 24%
In Vitro Percent Inhibition of Viability ([2]; patient ID 1, FAB AML1, 10^-5 M): 20%
In Vitro Percent Inhibition of Viability ([2]; patient ID 1, FAB AML1, 10^-6 M): 25%
In Vitro Percent Inhibition of Viability ([2]; patient ID 2, FAB AML1, 10^-5 M): 30%
In Vitro Percent Inhibition of Viability ([2]; patient ID 2, FAB AML1, 10^-6 M): 0%
In Vitro Percent Inhibition of Viability ([2]; patient ID 3, FAB AML2, 10^-5 M): 68%
In Vitro Percent Inhibition of Viability ([2]; patient ID 3, FAB AML2, 10^-6 M): 34%
In Vitro Percent Inhibition of Viability ([2]; patient ID 4, FAB AML2, 10^-5 M): 38%
In Vitro Percent Inhibition of Viability ([2]; patient ID 4, FAB AML2, 10^-6 M): 35%
In Vitro Percent Inhibition of Viability ([2]; patient ID 5, FAB AML2, 10^-5 M): 40%
In Vitro Percent Inhibition of Viability ([2]; patient ID 5, FAB AML2, 10^-6 M): 1%
In Vitro Percent Inhibition of Viability ([2]; patient ID 6, FAB AML3, 10^-5 M): 85%
In Vitro Percent Inhibition of Viability ([2]; patient ID 6, FAB AML3, 10^-6 M): 24%
In Vitro Percent Inhibition of Viability ([2]; patient ID 7, FAB AML3, 10^-5 M): 50%
In Vitro Percent Inhibition of Viability ([2]; patient ID 7, FAB AML3, 10^-6 M): 30%
In Vitro Percent Inhibition of Viability ([2]; patient ID 8, FAB AML3, 10^-5 M): 46%
In Vitro Percent Inhibition of Viability ([2]; patient ID 8, FAB AML3, 10^-6 M): 38%
In Vitro Percent Inhibition of Viability ([2]; patient ID 9, FAB AML3, 10^-5 M): 97%
In Vitro Percent Inhibition of Viability ([2]; patient ID 9, FAB AML3, 10^-6 M): 23%
In Vitro Percent Inhibition of Viability ([2]; patient ID 10, FAB AML4, 10^-5 M): 55%
In Vitro Percent Inhibition of Viability ([2]; patient ID 10, FAB AML4, 10^-6 M): 33%
In Vitro Percent Inhibition of Viability ([2]; patient ID 11, FAB AML5, 10^-5 M): 75%
In Vitro Percent Inhibition of Viability ([2]; patient ID 11, FAB AML5, 10^-6 M): 36%
In Vitro Percent Inhibition of Viability ([2]; patient ID 12, FAB AML5, 10^-5 M): 55%
In Vitro Percent Inhibition of Viability ([2]; patient ID 13, FAB AML5, 10^-5 M): 40%
In Vitro Percent Inhibition of Viability ([2]; patient ID 13, FAB AML5, 10^-6 M): 24%
In Vitro Percent Inhibition of Viability ([2]; patient ID 14, FAB AML5, 10^-5 M): 25%
In Vitro Percent Inhibition of Viability ([2]; patient ID 14, FAB AML5, 10^-6 M): 23%
In Vitro Percent Inhibition of Viability ([2]; patient ID 15, FAB AML5, 10^-5 M): 27%
In Vitro Percent Inhibition of Viability ([2]; patient ID 15, FAB AML5, 10^-6 M): 16%
